Laboratory results reported in patent US20180066231A1, “MESENCHYMAL STEM CELL CULTURE MEDIUM, METHODS FOR CULTURING MESENCHYMAL STEM CELLS, AND MESENCHYMAL STEM CELLS” (ROHTO PHARMACEUTICAL CO., LTD., priority 2015, published 2018).

System: Umbilical cord derived mesenchymal stem cells (UC-MSC)
Experiment: Test 4: induction of oxidative stress resistance (Rotenone treatment, nucleus count)
Type: cell-based
Conditions: Rotenone 0 nM, 100 nM, 200 nM, 500 nM, 1 μM; after 48 hours; FIG. 11
Procedure: (UC-MSC; Umbilical Cord derived Mesenchymal Stem Cells Wharton's Jelly (HMSC-WJ), FC-0020, LIFELINE CELL TECHNOLOGY Co., Ltd.; UC-MSC; Umbilical Cord derived Mesenchymal Stem Cells ScienCell Research Laboratories, Inc; and Umbilical Cord derived Mesenchymal Stem Cells ATCC) were conditioned with a recommended medium of each entity at 37° C. under 5% of CO2, and they were exchanged with the recommended medium of each entity or the medium of Example 1 (0.3-1×10^5 cells/well; 6 well plate). The passage was carried out every 2 to 3 days and those cells were treated with Rotenone of the following concentrations (0 nM, 100 nM, 200 nM, 500 nM, 1 μM). After 48 hours, these cells were stained with Hoechest33258 and the number of nucleus was counted using ImageXpress (Molecular Devices, LLC.).

C=C(C)[C@H]1Cc2c(ccc3c2O[C@@H]2COc4cc(OC)c(OC)cc4[C@@H]2C3=O)O1 [Rotenone]
cell number of UC-MSC: decreases in a concentration dependent manner
